Source: PubChem BioAssay AID330 (DTP/NCI, 2004)
Several values for one entry are separate records, joined by “and”; a condition that tells them apart may be missing. Equal values may be shown once. Toxic doses and inconclusive results are not listed. The calls were made as follows: active = survival T/C of 150% or more; inactive = T/C below 125% in these data.

System: P388 leukemia ip, CD2F1 mice, survival T/C
Assay: NCI In Vivo Anticancer Drug Screen. Data for tumor model P388 Leukemia (intraperitoneal) in CD2F1 (CDF1) mice
Conditions: endpoint: median survival time, higher = longer survival
Summary of the method: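 Mice carrying the transplanted tumor received test compound or vehicle. Survival was recorded in each group, and the value is the treated-group measurement divided by that of the vehicle-treated control group.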

[1] = dose: 50.0 mg/kg/injection, schedule: Q01DX009 (ip), vehicle: Klucel (hydroxypropylcellulose) (HPC)
[2] = dose: 100.0 mg/kg/injection, schedule: Q01DX009 (ip), vehicle: Klucel (hydroxypropylcellulose) (HPC)
[3] = dose: 200.0 mg/kg/injection, schedule: Q01DX009 (ip), vehicle: Klucel (hydroxypropylcellulose) (HPC)
[4] = dose: 6.25 mg/kg/injection, schedule: Q01DX009 (ip), vehicle: saline with Tween-80
[5] = dose: 12.5 mg/kg/injection, schedule: Q01DX009 (ip), vehicle: saline with Tween-80
[6] = dose: 25.0 mg/kg/injection, schedule: Q01DX009 (ip), vehicle: saline with Tween-80
[7] = dose: 50.0 mg/kg/injection, schedule: Q01DX005 (ip), vehicle: saline with Tween-80
[8] = dose: 100.0 mg/kg/injection, schedule: Q01DX005 (ip), vehicle: saline with Tween-80
[9] = dose: 200.0 mg/kg/injection, schedule: Q01DX005 (ip), vehicle: saline with Tween-80
[10] = dose: 60.0 mg/kg/injection, schedule: Q01DX005 (ip), vehicle: saline with Tween-80
[11] = dose: 120.0 mg/kg/injection, schedule: Q01DX005 (ip), vehicle: saline with Tween-80
[12] = dose: 240.0 mg/kg/injection, schedule: Q01DX005 (ip), vehicle: saline with Tween-80
[13] = dose: 100.0 mg/kg/injection, schedule: Q01DX009 (ip), vehicle: saline with Tween-80
[14] = dose: 7.5 mg/kg/injection, schedule: Q01DX005 (ip), vehicle: Klucel (hydroxypropylcellulose) (HPC)
[15] = dose: 15.0 mg/kg/injection, schedule: Q01DX005 (ip), vehicle: Klucel (hydroxypropylcellulose) (HPC)

Measured: T/C

CCCCNC(=O)C(c1ccccc1)c1ccccc1
inactive: [1] 99 % of control | [2] 106 % of control | [3] 100 % of control

CCCOC(=O)/C=C(\Cl)C(=O)OCCC
inactive: [4] 104 % of control | [5] 109 % of control | [6] 113 % of control

C=CCOP1(OCC=C)=NP(OCC=C)(OCC=C)=NP(OCC=C)(OCC=C)=N1
inactive: [7] 96 % of control | [8] 100 % of control | [9] 102 % of control

CCCCCCCCCCCCCCCC[N+](C)(C)CCSC(C)=O
inactive: dose: 0.78 mg/kg/injection, schedule: Q01DX009 (ip), vehicle: acetone 100 % of control | dose: 1.56 mg/kg/injection, schedule: Q01DX009 (ip), vehicle: acetone 104 % of control | dose: 3.12 mg/kg/injection, schedule: Q01DX009 (ip), vehicle: acetone 104 % of control | dose: 6.25 mg/kg/injection, schedule: Q01DX009 (ip), vehicle: acetone 107 % of control

OCCN(CCO)c1ncnc2nc[nH]c12
inactive: [7] 88 % of control | [8] 96 % of control | [9] 98 % of control

Cc1ccc(C(O)c2cnc(C)n2Cc2ccccc2)cc1 (centres undefined)
inactive: [10] 100 % of control | [11] 98 % of control | [12] 92 % of control

COc1cccc2c1[n+]([O-])c1cccc(O)c1[n+]2[O-]
inactive: dose: 1.56 mg/kg/injection, schedule: Q01DX009 (ip), vehicle: saline with Tween-80 112 % of control | dose: 3.12 mg/kg/injection, schedule: Q01DX009 (ip), vehicle: saline with Tween-80 109 % of control | [4] 114 % of control | [5] 124 % of control

CN1CC2CCCCN2CC(Cc2ccccc2)([N+](=O)[O-])C1 (centres undefined)
inactive: dose: 100.0 mg/kg/injection, schedule: Q04DX002 (ip), vehicle: saline 109 % of control | dose: 200.0 mg/kg/injection, schedule: Q04DX002 (ip), vehicle: saline 109 % of control

CC[C@@H]1C[C@@H]2CN3CCc4c([nH]c5cc(Cc6ccc(OC)c(OC)c6)c(OC)cc45)C(C(=O)OC)(C2)C13
inactive: dose: 0.5 mg/kg/injection, schedule: Q01DX009 (ip), vehicle: Klucel (hydroxypropylcellulose) (HPC) 96 % of control | dose: 1.0 mg/kg/injection, schedule: Q01DX009 (ip), vehicle: Klucel (hydroxypropylcellulose) (HPC) 107 % of control | dose: 2.0 mg/kg/injection, schedule: Q01DX009 (ip), vehicle: Klucel (hydroxypropylcellulose) (HPC) 111 % of control | dose: 4.0 mg/kg/injection, schedule: Q01DX009 (ip), vehicle: Klucel (hydroxypropylcellulose) (HPC) 107 % of control and 97 % of control | dose: 8.0 mg/kg/injection, schedule: Q01DX009 (ip), vehicle: Klucel (hydroxypropylcellulose) (HPC) 101 % of control | dose: 16.0 mg/kg/injection, schedule: Q01DX009 (ip), vehicle: Klucel (hydroxypropylcellulose) (HPC) 98 % of control

Nc1nc2ncc([N+](=O)[O-])cc2c(=O)[nH]1
inactive: [7] 102 % of control | [8] 100 % of control

CCC1C(C#N)C(=O)NC(=O)C1C#N (centres undefined)
inactive: [1] 100 % of control | [2] 95 % of control | [3] 95 % of control

COC(=O)c1cccc2c1OCO2
inactive: [13] 100 % of control | dose: 200.0 mg/kg/injection, schedule: Q01DX009 (ip), vehicle: saline with Tween-80 100 % of control | dose: 400.0 mg/kg/injection, schedule: Q01DX009 (ip), vehicle: saline with Tween-80 100 % of control

COC(=O)CS(=O)(=O)CC(=O)OC
inactive: [1] 100 % of control | [2] 106 % of control | [3] 101 % of control

CCNC(=O)N(CC(N)=O)c1ncc([N+](=O)[O-])s1
inactive: dose: 6.25 mg/kg/injection, schedule: Q01DX001 (ip), vehicle: saline 105 % of control | dose: 12.5 mg/kg/injection, schedule: Q01DX001 (ip), vehicle: saline 103 % of control | dose: 25.0 mg/kg/injection, schedule: Q01DX001 (ip), vehicle: saline 104 % of control | dose: 50.0 mg/kg/injection, schedule: Q01DX001 (ip), vehicle: saline 100 % of control and 103 % of control | dose: 100.0 mg/kg/injection, schedule: Q01DX001 (ip), vehicle: saline 106 % of control and 97 % of control

[CH3][Sn]([CH3])([n]1cnc2ccccc21)[n]1cnc2ccccc21
inactive: dose: 3.12 mg/kg/injection, schedule: Q01DX005 (ip), vehicle: Klucel (hydroxypropylcellulose) (HPC) 111 % of control | dose: 6.25 mg/kg/injection, schedule: Q01DX005 (ip), vehicle: Klucel (hydroxypropylcellulose) (HPC) 115 % of control | dose: 12.5 mg/kg/injection, schedule: Q01DX005 (ip), vehicle: Klucel (hydroxypropylcellulose) (HPC) 118 % of control

O=C(O)C(=O)O.[NH2-].[NH2-].[NH2-].[NH2-].[Ru+4]
inactive: dose: 3.13 mg/kg/injection, schedule: Q04DX003 (ip), vehicle: water 110 % of control | dose: 25.0 mg/kg/injection, schedule: Q04DX003 (ip), vehicle: water 98 % of control

NC1=C(O)C(=O)C(c2c[nH]c3ccc(OCc4ccccc4)cc23)O1 (centres undefined)
inactive: [14] 93 % of control | [15] 101 % of control | dose: 30.0 mg/kg/injection, schedule: Q01DX005 (ip), vehicle: Klucel (hydroxypropylcellulose) (HPC) 102 % of control and 96 % of control

Cn1c(=S)[nH]c2sc3c(c2c1=O)CCCCC3
inactive: [10] 101 % of control | [11] 97 % of control | [12] 90 % of control

CCOP(=O)(CSCCC1(C)NC(=O)NC1=O)OCC (centres undefined)
inactive: dose: 60.0 mg/kg/injection, schedule: Q01DX005 (ip), vehicle: saline 102 % of control | dose: 120.0 mg/kg/injection, schedule: Q01DX005 (ip), vehicle: saline 103 % of control | dose: 240.0 mg/kg/injection, schedule: Q01DX005 (ip), vehicle: saline 102 % of control

O=C1c2ccccc2C(=O)c2cscc21
inactive: [5] 100 % of control | [6] 97 % of control | dose: 50.0 mg/kg/injection, schedule: Q01DX009 (ip), vehicle: saline with Tween-80 97 % of control | [13] 98 % of control

c1nc(Sc2ncnc3nc[nH]c23)c2[nH]cnc2n1
inactive: dose: 180.0 mg/kg/injection, schedule: Q01DX009 (ip), vehicle: Klucel (hydroxypropylcellulose) (HPC) 100 % of control | dose: 266.0 mg/kg/injection, schedule: Q01DX009 (ip), vehicle: Klucel (hydroxypropylcellulose) (HPC) 100 % of control | dose: 400.0 mg/kg/injection, schedule: Q01DX009 (ip), vehicle: Klucel (hydroxypropylcellulose) (HPC) 100 % of control

CC(=O)N(CCCN1C(=O)c2ccccc2C1=O)c1ccc2c(c1)c(-c1ccccc1)nc1cc([N+](=O)[O-])ccc12
inactive: dose: 3.13 mg/kg/injection, schedule: Q01DX009 (ip), vehicle: other 98 % of control | dose: 6.25 mg/kg/injection, schedule: Q01DX009 (ip), vehicle: other 95 % of control | dose: 12.5 mg/kg/injection, schedule: Q01DX009 (ip), vehicle: other 87 % of control | dose: 50.0 mg/kg/injection, schedule: Q01DX009 (ip), vehicle: other 106 % of control | dose: 100.0 mg/kg/injection, schedule: Q01DX009 (ip), vehicle: other 96 % of control

COc1ccc(-c2cc(=O)c3cc(C)c(C)c(C#N)c3o2)cc1
inactive: dose: 3.75 mg/kg/injection, schedule: Q01DX005 (ip), vehicle: Klucel (hydroxypropylcellulose) (HPC) 120 % of control | [14] 93 % of control | [15] 109 % of control | dose: 120.0 mg/kg/injection, schedule: Q01DX005 (ip), vehicle: Klucel (hydroxypropylcellulose) (HPC) 86 % of control

COc1cc2c(c(O)c1O)-c1ccc(OC)c(=O)cc1C(NC(C)=O)CC2 (centres undefined)
inactive: dose: 1.25 mg/kg/injection, schedule: Q01DX009 (ip), vehicle: water 97 % of control | dose: 2.5 mg/kg/injection, schedule: Q01DX009 (ip), vehicle: water 97 % of control | dose: 5.0 mg/kg/injection, schedule: Q01DX009 (ip), vehicle: water 100 % of control | dose: 10.0 mg/kg/injection, schedule: Q01DX009 (ip), vehicle: water 100 % of control | dose: 20.0 mg/kg/injection, schedule: Q01DX009 (ip), vehicle: water 97 % of control | dose: 40.0 mg/kg/injection, schedule: Q01DX009 (ip), vehicle: distilled water + Tween-80 108 % of control | dose: 80.0 mg/kg/injection, schedule: Q01DX009 (ip), vehicle: distilled water + Tween-80 122 % of control
